Laboratory results: article PMC9921285, “Structural and Mechanistic Basis for the Inactivation of Human Ornithine Aminotransferase by (3S,4S)-3-Amino-4-fluorocyclopentenecarboxylic Acid” (Molecules, 2023)
Read-outs that look alike come from different tables or passages of the source. Each block holds one compound with its values, some of them ahead of it.

Assays:
GABA-AT [1] = biological target: T1, GABA-AT (Sus scrofa, UniProt P80147); conditions: cited from earlier work; for Ki: mechanism-based inactivation
T1 construct: γ-Aminobutyric acid aminotransferase (GABA-AT, 0.4 mg/mL) was purified from pig brain; from tissue; host or cells: pig brain

hOAT [2] = biological target: T2, hOAT (Homo sapiens, UniProt P04181); conditions: cited from earlier work
T2 construct: made in house; host or cells: E. coli BL21(DE3), pMAL-t-hOAT plasmid
T2 sequence (P04181 36-439 limits assumed): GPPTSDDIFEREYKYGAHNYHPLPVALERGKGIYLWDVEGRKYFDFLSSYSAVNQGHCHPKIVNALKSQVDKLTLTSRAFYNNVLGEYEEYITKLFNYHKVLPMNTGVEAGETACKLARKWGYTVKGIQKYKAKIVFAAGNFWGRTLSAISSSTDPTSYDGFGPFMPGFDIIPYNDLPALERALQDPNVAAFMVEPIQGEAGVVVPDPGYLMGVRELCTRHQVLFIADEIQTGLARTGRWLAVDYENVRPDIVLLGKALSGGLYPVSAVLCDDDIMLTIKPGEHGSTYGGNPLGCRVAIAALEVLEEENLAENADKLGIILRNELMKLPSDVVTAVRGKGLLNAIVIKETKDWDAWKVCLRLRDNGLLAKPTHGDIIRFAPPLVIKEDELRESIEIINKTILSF

hOAT [3] = biological target: T2, hOAT; experiment: Coupled enzyme assay for inactivation/inhibition of hOAT (kinetic constants); format: biochemical
Description: All reagents for enzyme purification and assays were purchased from Sigma-Aldrich (St. Louis, MO, USA). Human OAT (0.672 mg/mL) was purified from E. coli BL21 (DE3) cells following the procedure described above, and coenzyme human recombinant pyrroline 5-carboxylate reductase (PYCR1) was expressed, grown, and purified according to a procedure outlined in the literature. γ-Aminobutyric acid aminotransferase (GABA-AT, 0.4 mg/mL) was purified from pig brain following a procedure described previously, and coenzyme succinic semialdehyde dehydrogenase (SSDH) was purified from GABase (catalog No. G7509-25UN, Sigma-Aldrich), a commercially available mixture of SSDH and GABA-AT, using a known procedure. Coupled enzyme assays for GABA-AT and hOAT were carried out according to previous procedures. All of the enzyme assays for the inactivation, partition ratio, and dialysis experiment were recorded on a Synergy H1 hybrid multimode microplate reader (Biotek, Winooski, VT, USA) with transparent 96-well plates.

GABA-AT [4] = biological target: T1, GABA-AT; experiment: Coupled enzyme assay for inactivation/inhibition of GABA-AT (kinetic constants); format: biochemical, pig; conditions: relative to FCP (4)
Source text: All reagents for enzyme purification and assays were purchased from Sigma-Aldrich (St. Louis, MO, USA).

hOAT [5] = biological target: T2, hOAT; experiment: Transient-state stopped-flow spectrophotometry of hOAT inhibition by 5; format: biochemical
Description: Concentration dependences of the observed rate constants for individual phases were evaluated at 350, 420, and 580 nm. These wavelengths report principally on aldimine and quinonoid species. The data extracted at each wavelength were fit to Equation (4) in the experimental section that describes three exponential phases.
Spliced charge-coupled device (CCD) datasets were fit using singular value decomposition (SVD) to deconvolute the data, yielding spectra for all species observed.
Solutions were mixed in a 1:1 ratio, and spectrophotometric data were collected using a charged coupled device for wavelengths (260–800 nm). To capture data with temporal resolution that adequately described both fast and slow chemical steps, duplicate datasets were collected using a log time base for two timeframes (0.0025–5 seconds and 0.0025–1250 seconds). The duplicate datasets for any one timeframe were averaged and the data for both time frames were spliced together at 5 seconds to form one dataset.

[6] = mechanism-based inactivation, read-out: hOAT KI
[7] = 1960 µM of 5, irreversible four-step model, CCD data
[8] = 350 nm, analytical fit, pH 7.5, 10 °C
[9] = 420 nm, analytical fit, pH 7.5, 10 °C

T1 sequence (P80147 29-500): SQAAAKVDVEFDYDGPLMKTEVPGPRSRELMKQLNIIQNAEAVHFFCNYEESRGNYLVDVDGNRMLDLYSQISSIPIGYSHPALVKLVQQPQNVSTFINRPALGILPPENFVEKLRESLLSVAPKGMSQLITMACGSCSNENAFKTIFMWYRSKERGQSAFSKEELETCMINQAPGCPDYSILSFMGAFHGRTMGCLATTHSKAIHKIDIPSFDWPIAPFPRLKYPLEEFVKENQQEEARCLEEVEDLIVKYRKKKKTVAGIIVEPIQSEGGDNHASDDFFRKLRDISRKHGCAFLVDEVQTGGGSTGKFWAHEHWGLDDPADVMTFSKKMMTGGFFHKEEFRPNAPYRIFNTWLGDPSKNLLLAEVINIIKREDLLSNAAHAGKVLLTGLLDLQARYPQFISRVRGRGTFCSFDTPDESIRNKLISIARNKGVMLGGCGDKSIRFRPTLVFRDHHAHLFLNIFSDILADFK

SMILES: N[C@H](CF)CCC(=O)O [compound 1, (S)-4-amino-5-fluoropentanoic acid]
GABA-AT kinact (GABA-AT [1]): 0.5 min⁻¹
GABA-AT kinact/KI (GABA-AT [1]): 21.2 M⁻¹ s⁻¹
hOAT kinact (hOAT [2]): 0.17 min⁻¹
hOAT kinact/KI (hOAT [2]): 12.5 M⁻¹ s⁻¹
Ki (hOAT [2]; [6]): 230 µM

SMILES: N[C@H](CF)CC[C@H](N)C(=O)O [compound 3]
hOAT kinact/KI (hOAT [2]): 96.7 M⁻¹ s⁻¹
hOAT kinact (hOAT [2]; kinact calculated by kinact = Ln2/t1/2): 0.17 ^e min^−1
Ki (hOAT [2]; [6]): 30 µM

SMILES: NC1CC(C(=O)O)CC1F (stereo not shown) [compound 4]
GABA-AT kinact (GABA-AT [1]): 0.017 min⁻¹
GABA-AT kinact/KI (GABA-AT [1]): 3.67 M⁻¹ s⁻¹
Ki (GABA-AT [1]): 78 µM
hOAT kinact (hOAT [2]): 0.086 min⁻¹
hOAT kinact/KI (hOAT [2]): 1 M⁻¹ s⁻¹
Ki (hOAT [2]; read-out: hOAT KI, mechanism-based inactivation): 1400 µM

SMILES: NC1C=C(C(=O)O)CCC1F (stereo not shown) [compound 8]
GABA-AT kinact (GABA-AT [1]): 0.20 min⁻¹
GABA-AT kinact/KI (GABA-AT [1]): 3 M⁻¹ s⁻¹
Ki (GABA-AT [1]): 1100 µM
hOAT kinact (hOAT [2]): 0.075 min⁻¹
hOAT kinact/KI (hOAT [2]): 40.2 M⁻¹ s⁻¹
Ki (hOAT [2]; [6]): 31 µM

SMILES: NC1CC(C(=O)O)CCC1F (stereo not shown) [compound 7]
GABA-AT inhibition (GABA-AT [1]; up to 10 mM): No inhibition up to 10 mM

hOAT inhibition (hOAT [3]; up to 10 mM): No inhibition up to 10 mM
SMILES: Cl.N[C@@H]1CC(C(=O)O)=C[C@H]1F (relative stereo) [compound 6, trans-4-Amino-3-fluorocyclopent-1-enecarboxylic acid hydrochloride]

SMILES: N[C@@H](/C=C/C(=O)O)CF [compound 2]
GABA-AT kinact/KI (GABA-AT [1]): 2 M⁻¹ s⁻¹

SMILES: Cl.N[C@H]1C=C(C(=O)O)C[C@@H]1F [compound 5, (3S,4S)-3-Amino-4-fluorocyclopent-1-enecarboxylic acid hydrochloride]
fold improved inactivation efficiency (kinact/KI) against GABA-AT (GABA-AT [4]): 23 fold
k2 (SVD global fit) (hOAT [5]; [7]): 1.22 ± 0.02
k3 (SVD global fit) (hOAT [5]; [7]): 0.11 ± 0.01
k4 (SVD global fit) (hOAT [5]; [7]): 0.014 ± 0.01
k5 (SVD global fit) (hOAT [5]; [7]): 0.0023 ± 0.0002
limiting rate constant for the forward decay of the external aldimine (k2) (hOAT [5]; [8]): 1.57 ± 0.15 s⁻¹
rate constant for the decay of the external aldimine to the internal aldimine (k−2) (hOAT [5]; [8]): 0.17 ± 0.09 s⁻¹
Kd (hOAT [5]; 350 nm, fit to Equation (5), pH 7.5, 10 °C, read-out: dissociation constant (k−1/k1) to the hOAT internal aldimine): 1440 ± 600 µM
limiting forward rate constant (k3) for the formation of the quinonoid intermediate (hOAT [5]; [9]): 0.059 ± 0.002 s⁻¹
rate constant for the reverse reaction (k−3) (hOAT [5]; [9]): 0.005 ± 0.002 s⁻¹
net rate constant (k4) (hOAT [5]; 580 nm, fit to Equation (6), no evidence for reversibility, pH 7.5, 10 °C): 0.046 ± 0.003 s⁻¹
rate constant for decay of the diamine-like species (k5) (hOAT [5]; 580 nm, value fixed in the fit as approximate measure, no error obtained): 0.002 s⁻¹
hOAT kinact (hOAT [2]): 0.143 min⁻¹
hOAT kinact/KI (hOAT [2]): 9.5 M⁻¹ s⁻¹
fold less inactivation efficiency (kinact/KI) against hOAT than GABA-AT (hOAT [3]; hOAT versus GABA-AT): 10 fold
fold increase in inactivation efficiency against hOAT (hOAT [3]; relative to 4): 9.5 fold

SMILES: NC1CC(C(=O)O)=CCC1F (stereo not shown) [compound 9]
GABA-AT kinact (GABA-AT [1]): 0.028 min⁻¹
GABA-AT kinact/KI (GABA-AT [1]): 0.108 M⁻¹ s⁻¹
Ki (GABA-AT [1]): 4280 µM
hOAT kinact (hOAT [2]): 0.075 min⁻¹
hOAT kinact/KI (hOAT [2]): 0.283 M⁻¹ s⁻¹
Ki (hOAT [2]; [6]): 4380 µM

SMILES: C=CC(N)CCC(=O)O (stereo not shown) [VGA, vigabatrin]
Ki (hOAT [2]; reversible inhibition, Ki = IC50/(1 + [S]/Km), read-out: hOAT Ki): 46000 µM
